Results on 19 molecules are retold here after patent US20050282811A1, “Diazabicyclic histamine-3 receptor antagonists” (Pfizer Inc, priority 2004, published 2005).

Usually Ki stands for the equilibrium dissociation constant of an inhibitor or competing ligand from its target.

For the assay, the target named is T1, rat histamine H3 receptors (Rattus norvegicus, UniProt Q9QYN8).
T1 construct: Frozen rat frontal brain or frozen human post-mortem frontal brain is homogenized; from tissue; host or cells: rat frontal brain membranes
T1 sequence (Q9QYN8 whole entry): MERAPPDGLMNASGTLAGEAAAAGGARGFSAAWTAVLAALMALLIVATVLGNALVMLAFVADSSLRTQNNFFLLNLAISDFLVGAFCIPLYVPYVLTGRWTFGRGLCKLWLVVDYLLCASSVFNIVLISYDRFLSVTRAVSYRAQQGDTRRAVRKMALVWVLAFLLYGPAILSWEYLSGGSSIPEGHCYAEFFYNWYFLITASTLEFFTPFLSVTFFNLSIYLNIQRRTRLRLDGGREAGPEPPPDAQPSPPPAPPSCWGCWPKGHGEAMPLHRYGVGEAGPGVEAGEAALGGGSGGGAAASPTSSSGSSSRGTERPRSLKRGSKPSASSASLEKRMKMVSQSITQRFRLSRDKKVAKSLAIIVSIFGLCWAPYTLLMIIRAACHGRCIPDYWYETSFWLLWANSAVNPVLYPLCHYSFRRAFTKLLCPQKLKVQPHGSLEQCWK
Nature of the assay: Rat H3 Binding (3H-N-methylhistamine displacement, frontal brain membranes). The following applies: frozen rat frontal brain membranes; radioligand 1 nM 3H-N-methylhistamine; 1 hour incubation. As to the method:
The in vitro affinity of the compounds in the present invention at the rat or human histamine H3 receptors can be determined according to the following procedure. Frozen rat frontal brain or frozen human post-mortem frontal brain is homogenized in 20 volumes of cold 50 mM Tris HCl containing 2 mM MgCl2 (pH to 7.4 at 4 degrees C.). The homogenate is then centrifuged at 45,000 G for 10 minutes. The supernatant is decanted and the membrane pellet re-suspended by Polytron in cold 50 mM Tris HCl containing 2 mM MgCl2 (pH to 7.4 at 4 degrees C.) and centrifuged again. The final pellet is re-suspended in 50 mM Tris HCl containing 2 mM MgCl2 (pH to 7.4 at 25 degrees C.) at a concentration of 12 mg/mL. Dilutions of compounds are made in 10% DMSO/50 mM Tris buffer (pH 7.4) (at 10×final concentration, so that the final DMSO concentration is 1%). Incubations are initiated by the addition of membranes (200 microliters) to 96 well V-bottom polypropylene plates containing 25 microliters of drug dilutions and 25 microliters of radioligand (1 nM final concentration ^3H-N-methylhistamine). After a 1 hour incubation, assay samples are rapidly filtered through Whatman GF/B filters and rinsed with ice-cold 50 mM Tris buffer (pH 7.4) using a Skatron cell harvester. Radioactivity is quantified using a BetaPlate scintillation counter.

For the molecule `COc1ccc(CN2CCN3C[C@H](COCCCN4CCCCC4)CC[C@H]3C2)cc1` (relative stereo) [Example 6], the Ki turned out to be 55 nM.
The result for `c1ccc(CN2CCN3C[C@H](COCCCN4CCCCC4)CC[C@H]3C2)cc1` (stereo in doubt) [Example 2, trans-2-Benzyl-7-(3-piperidin-1-ylpropoxymethyl)-octahydro-pyrido[1,2-a]pyrazine] reads 125 nM; that for `c1ccc(CCN2CCN3C[C@H](COCCCN4CCCCC4)CC[C@H]3C2)cc1` (stereo in doubt) [Example 3, trans-2-Phenethyl-7-(3-piperidin-1-ylpropoxymethyl)-octahydro-pyrido[1,2-a]pyrazine], 54 nM; that for `c1ccc(CCCN2CCN3C[C@H](COCCCN4CCCCC4)CC[C@H]3C2)cc1` (stereo in doubt) [Example 4, trans-2-(3-Phenylpropyl)-7-(3-piperidin-1-ylpropoxymethyl)-octahydro-pyrido[1,2-a]pyrazine], 37 nM.
The result for `CC(=O)c1ccc(CN2CCN3C[C@H](COCCCN4CCCCC4)CC[C@H]3C2)cc1` (stereo in doubt) [Example 5, trans-1-{4-[7-(3-Piperidin-1-ylpropoxymethyl)-octahydro-pyrido[1,2-a]pyrazin-2-ylmethyl]-phenyl}-ethanone] reads 35 nM; that for `COc1cccc(CN2CCN3C[C@H](COCCCN4CCCCC4)CC[C@H]3C2)c1` (stereo in doubt) [Example 7, trans-2-(3-Methoxybenzyl)-7-(3-piperidin-1-ylpropoxymethyl)-octahydro-pyrido[1,2-a]pyrazine], 28 nM; that for `Fc1ccc(CN2CCN3C[C@H](COCCCN4CCCCC4)CC[C@H]3C2)cc1` (stereo in doubt) [Example 8, trans-2-(4-Fluorobenzyl)-7-(3-piperidin-1-ylpropoxymethyl)-octahydro-pyrido[1,2-a]pyrazine], 26 nM.
The result for `Fc1cccc(CN2CCN3C[C@H](COCCCN4CCCCC4)CC[C@H]3C2)c1` (stereo in doubt) [Example 9, trans-2-(3-Fluorobenzyl)-7-(3-piperidin-1-ylpropoxymethyl)-octahydro-pyrido[1,2-a]pyrazine] reads 9 nM.
In the case of `Clc1ccc(CN2CCN3C[C@H](COCCCN4CCCCC4)CC[C@H]3C2)cc1` (stereo in doubt) [Example 10, trans-2-(4-Chlorobenzyl)-7-(3-piperidin-1-ylpropoxymethyl)-octahydro-pyrido[1,2-a]pyrazine], the Ki amounted to 14 nM. Against the preceding molecule, the Ki is about 1.6-fold higher.
The result for `Clc1cccc(CN2CCN3C[C@H](COCCCN4CCCCC4)CC[C@H]3C2)c1` (stereo in doubt) [Example 11, trans-2-(3-Chlorobenzyl)-7-(3-piperidin-1-ylpropoxymethyl)-octahydro-pyrido[1,2-a]pyrazine] reads 33 nM; that for `CC(=O)Nc1ccc(CN2CCN3C[C@H](COCCCN4CCCCC4)CC[C@H]3C2)cc1` (stereo in doubt) [Example 12, trans-N-{4-[7-(3-Piperidin-1-ylpropoxymethyl)-octahydro-pyrido[1,2-a]pyrazin-2-ylmethyl]-phenyl}-acetamide], 70 nM.
The result for `c1cc(CN2CCN3C[C@H](COCCCN4CCCCC4)CC[C@H]3C2)ccn1` (stereo in doubt) [Example 13, trans-7-(3-Piperidin-1-yl-propoxymethyl)-2-pyridin-4-ylmethyl-octahydro-pyrido[1,2-a]pyrazine] reads 33 nM; that for `c1ccc(CN2CCN3C[C@H](COCCCN4CCCCC4)CC[C@H]3C2)nc1` (stereo in doubt) [Example 15, trans-7-(3-Piperidin-1-yl-propoxymethyl)-2-pyridin-2-ylmethyl-octahydro-pyrido[1,2-a]pyrazine], 90 nM; that for `CN1CCN2C[C@H](COCCCN3CCCCC3)CC[C@H]2C1` (stereo in doubt) [Example 16, trans-2-Methyl-7-(3-piperidin-1-ylpropoxymethyl)-octahydro-pyrido[1,2-a]pyrazine], 114 nM.
The result for `CC(=O)c1ccc(CN2CCN3C[C@@H](COCCCN4CCCCC4)CC[C@H]3C2)cc1` (stereo in doubt) [Example 17, cis-1-{4-[7-(3-Piperidin-1-ylpropoxymethyl)-octahydro-pyrido[1,2-a]pyrazin-2-ylmethyl]-phenyl}-ethanone] reads 60 nM; that for `Clc1ccc(CN2CCN3C[C@@H](COCCCN4CCCCC4)CC[C@H]3C2)cc1` (stereo in doubt) [Example 18, cis-2-(4-Chlorobenzyl)-7-(3-piperidin-1-ylpropoxymethyl)-octahydro-pyrido[1,2-a]pyrazine], > 69 nM.
Regarding `CS(=O)(=O)c1ccc(CN2CCN3C[C@@H](COCCCN4CCCCC4)CC[C@H]3C2)cc1` (stereo in doubt) [Example 21, cis-2-(4-Methanesulfonylbenzyl)-7-(3-piperidin-1-ylpropoxymethyl)-octahydro-pyrido[1,2-a]pyrazine], the affinity corresponds to a Ki of 26 nM. This counts as double-digit nanomolar.
In turn, `C1CCN(CCCOC[C@@H]2CC[C@H]3CNCCN3C2)CC1` (stereo in doubt) [Intermediate 3, trans-7-(3-Piperidin-1-ylpropoxymethyl)-octahydro-pyrido[1,2-a]pyrazine] showed an inhibition constant Ki of 155 nM.
The result for `CS(=O)(=O)c1ccc(CN2CCN3C[C@H](COCCCN4CCCCC4)CC[C@H]3C2)cc1` [Example 1, trans-(7R, 9aS)-2-(4-Methanesulfonylbenzyl)-7-(3-piperidin-1-ylpropoxymethyl)-octa-hydro-pyrido[1,2-a]pyrazine] reads 42 nM.
